Reference: patent US20100279976A1, “USE OF ARTEMISININ AND ITS DERIVATIVES IN CANCER THERAPY” (SHANGHAI INSTITUTES FOR BIOLOGICAL SCIENCES, CAS, priority 2009, published 2010)
pIC50: −log10 of the molar value.

Columns and labels:
[1] = test system: 7702 normal human liver cells; assay: MTT cell viability assay, normal liver cells; format: cell-based; conditions: 7702 cells, 48 h; for IC20: read-out: IC20 (concentration that reduces growth by 20%)
Description: (§1) The effects of ART derivatives on the viability of the aforementioned cells may be determined using the MTT assay. Briefly, 2,000 cells per well were plated in triplicate in 96-well plates. After a 24-h incubation, the cells may be treated with varying concentrations of ART derivatives (0, 1, 5, 10, 25, 50, and 100 μmol/L) for 48 h. The MTT assay may be performed according to the manufacture's instruction and the resultant formazan crystals may be dissolved in DMSO (100 μL). The absorbance may be then recorded at 540 nm. The effects of ART derivatives on cell viability may be assessed by comparing the percent cell viability of the treated cells with the vehicle (DMSO)-treated control cells, which may be arbitrarily assigned at 100% viability. The experiment may be repeated thrice under the same conditions.

[2] = test system: HepG2 hepatoma cells (p53 wild-type); assay: MTT cell viability assay, HepG2; format: cell-based; conditions: Homo sapiens, 48 h
Description: as §1

[3] = test system: Hep3B hepatoma cells (p53 null); assay: MTT cell viability assay, Hep3B; format: cell-based; conditions: Homo sapiens, 48 h
Description: as §1

[4] = test system: BEL-7404 hepatoma cells (p53 mutant); assay: MTT cell viability assay, BEL-7404; format: cell-based; conditions: Homo sapiens, BEL-7404 (p53 mutant), 48 h
Description: as §1

[5] = test system: four hepatoma cell lines (HepG2, Hep3B, Huh-7, BEL-7404); assay: MTT assay, mean over four hepatoma cell lines; format: cell-based; conditions: Homo sapiens, mean of HepG2, Hep3B, read-out: overall mean IC50 in the four hepatoma cell lines
Description: as §1

[6] = test system: HepG2 cells; assay: MTT growth inhibition time course, alone or with gemcitabine; format: cell-based; conditions: Homo sapiens, HepG2, 10 μmol/L
Description: In addition, the growth-inhibitory effects of ART and DHA and the effects in combination with gemcitabine in HepG2 and Hep3B cells may also be determined using the MTT assay. Briefly, 700 cells per well may be plated in 96-well culture plates. After a 24-h incubation, the cells may be treated with 10 μmol/L ART, 10 μmol/L DHA, 10 μg/L gemcitabine, 10 μmol/L ART plus 10 μg/L gemcitabine, or 10 μmol/L DHA plus 10 μg/L gemcitabine for various times (0, 24, 48, 72, and 96 h). The results reflect the average of three replicates.

[7] = test system: HepG2 cells; assay: Cell cycle analysis (propidium iodide, flow cytometry), HepG2; format: cell-based, human
Description: (§2) Cells (2×10^5) may be treated with ART and DHA (0, 1, 10, 25, and 50 μmol/L) as described above for 48 h. The harvested cells may be re-suspended in 200 μL of cold PBS, to which cold ethanol (600 μl) may be added, and the mixture may then be incubated for 2 h at 4° C. After centrifugation, the pellet may be washed with cold PBS, suspended in 500 μL PBS, and incubated with 50 μL RNase (20 μg/mL final concentration) for 30 min. The cells may be incubated with propidium iodide (50 μg/mL final concentration) for 30 min in the dark. The cell cycle distribution may be determined using a FACSAria instrument (BD Biosciences). The experiment may be repeated thrice under the same conditions.

[8] = test system: Hep3B cells; assay: Cell cycle analysis (propidium iodide, flow cytometry), Hep3B; format: cell-based, human; conditions: 48 h
Description: as §2

[9] = test system: HepG2 xenograft tumors; assay: HepG2 xenograft model in nude mice; format: in vivo; conditions: for tumor growth inhibition: HepG2 xenograft, 5 d/wk for 4 wk
Description: (§3) Female athymic nude mice (nu/nu; 4-6 wk of age) may be obtained from Shanghai Slac Laboratory Animal Co. Ltd. All animals may be fed with commercial diet and water ad libitum. The human HCC xenograft models in mice may be as follows. Briefly, HepG2 and Hep3B cells may be re-suspended in serum-free DMEM with Matrigel basement membrane matrix at a 5:1 ratio. The cell suspension may then be injected (7×10^6 cells; total volume, 0.2 mL) into the left inguinal area of the BALB/c nude mice. The animals may be monitored for activity and physical condition everyday, and the determination of body weight and measurement of tumor mass may be done every 3 d. Tumor mass may be determined by caliper measurement in two perpendicular diameters of the implant and calculated using the formula ½a×b^2, where a stands for the long diameter and b is the short diameter. The animal use and care protocol is approved by the Institutional Review Board of the Institute for Nutritional Sciences, Chinese Academy of Sciences.
(§4) Nude mice bearing HepG2 and Hep3B xenografts, randomly divided into various treatment and control groups (five mice per group), may be treated orally with either ART or DHA suspended in 5% sesame oil+95% saline, at a dose of 50 or 100 mg/kg/d, or a combination of ART or DHA with gemcitabine or with saline (as controls). In the mice receiving combination therapy, 80 mg/kg gemcitabine, representing one fifth of the reported most tolerated dose in mice, may be administered i.p. on days 7, 11, and 15 to avoid possible side effects and to illustrate potential chemo-sensitization effects in this combination regimen.

[10] = test system: Hep3B xenograft tumors; assay: Hep3B xenograft model in nude mice; format: in vivo
Description: as §3, §4

[11] = test system: A2780 ovarian carcinoma cells; assay: MTT cell viability assay, A2780; format: cell-based; conditions: Homo sapiens, A2780, 48 hrs
Text: (§5) Human ovarian IOSE144 (immortalized non-tumorigenic human ovarian surface epithelial cells) and ovarian carcinoma (A2780 and OVCAR-3) cells that may be obtained from the American Type Culture Collection (ATCC, Manassas, Va.) are gifts from Dr. Jing Fang (Institute for Nutritional Sciences, Shanghai, China). All cells may be cultured according to the ATCC instructions. The compounds (ARS, ART, ARM and DHA) may be dissolved in DMSO (<0.1%, final concentration).
as §1

[12] = test system: IOSE144 immortalized non-tumorigenic ovarian surface epithelial cells; assay: MTT cell viability assay, IOSE144; format: cell-based; conditions: Homo sapiens, IOSE-144, IOSE144, 48 hrs
Text: as §5, §1

[13] = HepG2, 10 μmol/L, 48 h (control 63.05%)
[14] = HepG2 xenograft tissue, Western blot

C[C@@H]1CC[C@H]2[C@@H](C)C(=O)O[C@@H]3O[C@@]4(C)CC[C@@H]1[C@]32OO4 [ART, artemisinin]
pIC50 [1]: 4.22
IC80 ([1]; Homo sapiens): > 500 µM
IC20 ([1]; Homo sapiens): 3.6 µM
pIC50 ([1]; Homo sapiens): ≤ 4.22
IC20 [2]: 1.3 µM
pIC50 [2]: 4.85
IC80 [2]: 145 µM
IC20 [3]: 0.97 µM
pIC50 [3]: 4.98
IC80 [3]: 113 µM
IC20 [4]: 0.9 µM
pIC50 [4]: 5.00
IC80 [4]: 107 µM
pIC50 [5]: 4.97
inhibition at 10 µM ([6]; 24 h, vs vehicle-treated cells): 69%
inhibition at 10 µM ([6]; 48 h): 92%
inhibition at 10 µM ([6]; 72 h): 96%
cells in the G1 phase [7, 13]: 67.41%
cells in the G1 phase ([7]; HepG2, 25 μmol/L, 48 h): 70.72%
cells in the G1 phase ([7]; HepG2, 50 μmol/L, 48 h): 69.21%
cells in the G1 phase ([8]; 1 μmol/L): 66.11%
cells in the G1 phase ([8]; 10 μmol/L): 67.48%
cells in the G1 phase ([8]; 25 μmol/L): 68.70%
cells in the G1 phase ([8]; 50 μmol/L): 62.99%
G1-specific Cdks, cyclin D1, cyclin E, Cdk2, Cdk4, and E2F1 in tumor tissue [9, 14]: decrease
MDM2 in tumor tissue [9, 14]: decrease
activated caspase-3, cleaved PARP, Rb, p53, and the ratio of Bax/Bcl-2 in tumor tissue [9, 14]: increases
p21 and p27 in tumor tissue [9, 14]: increase
tumor growth inhibition ([9]; oral 50 mg/kg/d): 30.0%
tumor growth inhibition ([9]; oral 100 mg/kg/d): 39.4%
effect on tumor growth ([10]; Hep3B xenograft, oral 50 and 100 mg/kg/d, alone): slight inhibitory effect on tumor growth
toxic effects (body weight) ([10]; mouse, in vivo): Neither compound causes any observable toxic effects
IC20 [11]: 0.73 µM
pIC50 [11]: 4.75
IC80 [11]: 426 µM
IC20 [12]: 5.6 µM
pIC50 [12]: < 3.30
IC80 [12]: > 500 µM

C[C@H]1[C@@H](O)O[C@@H]2O[C@@]3(C)CC[C@H]4[C@H](C)CC[C@@H]1[C@@]24OO3 [DHA, dihydroartemisinin]
IC80 ([1]; Homo sapiens): > 500 µM
IC20 ([1]; Homo sapiens): 3.8 µM
IC20 [2]: 1.2 µM
pIC50 [2]: 4.87
IC80 [2]: 146 µM
IC20 [3]: 0.96 µM
pIC50 [3]: 4.99
IC80 [3]: 111 µM
IC20 [4]: 0.7 µM
pIC50 [4]: 5.03
IC80 [4]: 130 µM
pIC50 [5]: 4.97
inhibition at 10 µM ([6]; 24 h, vs vehicle-treated cells): 74%
inhibition at 10 µM ([6]; 48 h): 93%
inhibition at 10 µM ([6]; 72 h): 97%
cells in the G1 phase [7, 13]: 69.36%
cells in the G1 phase ([7]; HepG2, 25 μmol/L, 48 h): 70.91%
cells in the G1 phase ([7]; HepG2, 50 μmol/L, 48 h): 72.03%
cells in the G1 phase ([8]; 1 μmol/L): 68.11%
cells in the G1 phase ([8]; 10 μmol/L): 69.03%
cells in the G1 phase ([8]; 25 μmol/L): 70.50%
cells in the G1 phase ([8]; 50 μmol/L): 62.99%
toxic effects based on observations of bodyweight ([9]; HepG2 xenograft mice, alone or in combination with gemcitabine): neither ART nor DHA causes any observable toxic effects
tumor growth inhibition ([9]; oral 50 mg/kg/d): 36.1%
tumor growth inhibition ([9]; oral 100 mg/kg/d): 60.6%
toxic effects (body weight) ([10]; Hep3B xenograft mice): Neither compound causes any observable toxic effects
IC20 [11]: 0.83 µM
pIC50 [11]: 4.78
IC80 [11]: 328 µM
IC20 [12]: 1.84 µM
pIC50 [12]: 3.97
IC80 [12]: > 500 µM
